Assay results reported in article PMC8086025, “A benzopyran with antiarrhythmic activity is an inhibitor of Kir3.1-containing potassium channels” (The Journal of Biological Chemistry, 2021).
“Also recorded” adds a separate entry of the source. Ends that are not written are not given here.

Columns and labels:
SKCa = assay: Radioligand binding, [125I]apamin; parameters: species or system rat; settings: reference compound run for the assay
[1] = biological target: GABA Cl- channel (GABA-gated); assay: Radioligand binding, [35S]TBPS; parameters: species or system rat; settings: reference compound run for the assay
Adrenergic α2 = assay: Radioligand binding, [3H]prazosin; parameters: species or system rat; settings: reference compound run for the assay
Chemokines CCR1 = biological target: T1, Chemokines CCR1 (Homo sapiens, UniProt P32246); assay: Radioligand binding, [125I]MIP-1a; settings: reference compound run for the assay
T1 construct: expressed in transfected cells; host or cells: HEK-293 cells
T1 sequence (P32246 1-355): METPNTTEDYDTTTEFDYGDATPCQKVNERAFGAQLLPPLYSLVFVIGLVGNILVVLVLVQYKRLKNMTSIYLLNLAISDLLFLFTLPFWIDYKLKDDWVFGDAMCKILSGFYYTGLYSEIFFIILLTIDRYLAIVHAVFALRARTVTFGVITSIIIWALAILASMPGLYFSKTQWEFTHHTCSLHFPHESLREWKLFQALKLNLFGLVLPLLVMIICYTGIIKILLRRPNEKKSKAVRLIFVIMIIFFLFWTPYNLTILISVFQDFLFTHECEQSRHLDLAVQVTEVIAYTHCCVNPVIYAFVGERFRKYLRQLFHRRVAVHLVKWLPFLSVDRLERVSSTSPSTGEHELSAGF

IKACh = assay: In vivo ECG, carbachol-induced heart rate slowing in anesthetized mice; settings: 300 μl of 200 μM i.p.
Protocol: We tested the in vivo effects of BP-G1 versus those of BP-G1(SR) on heart rate in anesthetized adult mice (Fig. 8). ECG was continuously recorded. Panel A is the ECG showing that after carbachol (300 μl of 200 μM) was administered, i.p. (red mark), the heart decelerated, with a visible RR prolongation. About 10 min after carbachol injection, BP-G1 was delivered via the jugular vein (40 μl of 240 μM) (green mark). Within 5 min, there was a reversal of carbachol’s effects on the heart rate. Panel B is a control mouse showing heart rate slowing after carbachol administration (red mark).
Mice were anesthetized (1.5% isofluorane), and a 1.2 French octapolar catheter (Millar) with a drug delivery port was placed transvenously, through the jugular vein, into the right atrium. Continuous ECG was recorded using the Animal Bio Amp and PowerLab 4/35 Advanced Instruments apparatus. […] Saline control at the same volume was performed. Results are averages ±SD.

Somatostatin sst = assay: Radioligand binding, [125I]Tyr11-somatostatin-14, AtT-20 cells; settings: reference compound run for the assay
HCN4 = system: HCN4; parameters: method as in earlier work; settings: published NTC-801 data ref 27; cited from earlier work
Cav1.2 = settings: read-out: Published IC50, Cav1.2; ICa,L; published NTC-801 data ref 27; cited from earlier work
Kv7.1/KCNE1 = settings: published NTC-801 data ref 27; cited from earlier work
Kir3.1/3.4 = system: Kir3.1/3.4; parameters: method as in earlier work; settings: oocyte; published NTC-801 data ref 27; cited from earlier work
GP IKACh = system: GP IKACh; parameters: method as in earlier work; settings: published NTC-801 data ref 27; cited from earlier work
Kir2.1 = biological target: T2, Kir2.1 (Homo sapiens, UniProt P63252); settings: published NTC-801 data ref 27; cited from earlier work
T2 construct: host or cells: HEK293

Kir6.2/SUR2A = biological target: T3, Kir6.2/SUR2A (Homo sapiens, UniProt O60706+Q14654); settings: IKATP; published NTC-801 data ref 27; cited from earlier work
T3 construct: Andrew Tinker, UCL; host or cells: HEK293

hERG = settings: read-out: Published IC50, hERG; published NTC-801 data ref 27; cited from earlier work
Kv1.5 = Kv1.5 (Homo sapiens, UniProt P22460); settings: published NTC-801 data ref 27; cited from earlier work
Kir3.1/3.2 = system: Kir3.1/3.2; parameters: method as in earlier work; settings: published NTC-801 data ref 27; cited from earlier work
Nav1.5 = Nav1.5 (Homo sapiens, UniProt Q14524); settings: read-out: Published IC50, Nav1.5 (1Hz); published NTC-801 data ref 27; cited from earlier work
Kv4.3 = Kv4.3 (Homo sapiens, UniProt Q9UK17); settings: published NTC-801 data ref 27; cited from earlier work
5-HT2C = biological target: T4, 5-HT2C (Homo sapiens, UniProt P28335); assay: Radioligand binding, [3H]mesulergine; settings: read-out: Reference: IC50
T4 construct: expressed in transfected cells; host or cells: HEK-293 cells

Muscarinic M5 = biological target: T5, Muscarinic M5 (Homo sapiens, UniProt P08912); assay: Radioligand binding, [3H]4-DAMP; settings: reference compound run for the assay
T5 construct: expressed in transfected cells; host or cells: CHO cells

Kir3.1/4 channel = biological target: T6, Kir3.1/4 channel (Homo sapiens, UniProt P48544+P48549); assay: TEVC in Xenopus oocytes, Kir3.1/4; type: cell-based; parameters: expressed in transfected cells; host or cells: Xenopus laevis oocytes (cRNA injection); settings: 1 μM, TEVC
T6 sequence (P48549 1-501): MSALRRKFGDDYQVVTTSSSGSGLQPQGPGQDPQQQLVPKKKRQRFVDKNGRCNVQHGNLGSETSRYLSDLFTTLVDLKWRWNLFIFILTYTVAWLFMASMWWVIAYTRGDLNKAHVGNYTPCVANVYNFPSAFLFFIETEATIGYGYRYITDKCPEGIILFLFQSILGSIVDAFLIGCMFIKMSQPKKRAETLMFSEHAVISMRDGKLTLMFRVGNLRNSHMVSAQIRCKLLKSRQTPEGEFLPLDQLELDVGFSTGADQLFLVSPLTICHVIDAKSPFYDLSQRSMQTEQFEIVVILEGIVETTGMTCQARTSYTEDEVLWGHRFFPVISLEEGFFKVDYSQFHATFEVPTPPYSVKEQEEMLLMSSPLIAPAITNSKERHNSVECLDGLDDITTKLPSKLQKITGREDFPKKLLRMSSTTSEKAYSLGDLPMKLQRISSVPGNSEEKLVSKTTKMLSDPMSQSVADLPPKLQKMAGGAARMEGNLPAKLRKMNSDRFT
T6 sequence (P48544 1-419): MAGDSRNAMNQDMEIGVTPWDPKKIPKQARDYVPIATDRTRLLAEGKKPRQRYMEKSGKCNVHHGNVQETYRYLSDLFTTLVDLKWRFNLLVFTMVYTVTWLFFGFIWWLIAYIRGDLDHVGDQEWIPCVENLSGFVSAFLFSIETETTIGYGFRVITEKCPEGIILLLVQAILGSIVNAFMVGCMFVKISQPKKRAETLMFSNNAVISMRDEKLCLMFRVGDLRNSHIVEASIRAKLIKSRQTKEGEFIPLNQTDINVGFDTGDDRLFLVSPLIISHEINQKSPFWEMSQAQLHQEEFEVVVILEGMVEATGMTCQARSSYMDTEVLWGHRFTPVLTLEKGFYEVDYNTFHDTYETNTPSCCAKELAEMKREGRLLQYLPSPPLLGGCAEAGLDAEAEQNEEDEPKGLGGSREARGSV
Protocol: X. laevis oocytes were isolated and microinjected as previously described ([6]). Human Kir3.1, mouse Kir3.2, and human Kir3.4 DNA constructs were used for electrophysiology experiments. All cRNA constructs were injected in the amount of 2 ng per oocyte. Injected oocytes were incubated for 2 to 3 days at 18 °C to allow for expression. Whole-cell oocyte currents were then measured using a GeneClamp 500 amplifier (Axon Instruments). Microelectrodes had resistances of 0.5 to 1 megohm using a 3M KCl solution in 1.4% agarose. Oocytes were perfused with a low K^+ (LK) solution ND96 (2 mM KCl, 96 mM NaCl, 1 mM MgCl2, 1.8 mM CaCl2, 5 mM HEPES-Na) to establish a baseline for the recordings. Basal current was measured in a high potassium (HK) solution ND96K (96 mM KCl, 10 mM HEPES-K, 1 mM MgCl2, 1.8 mM CaCl2). To block the current, the oocyte chamber was perfused with 4 mM BaCl2 in ND96K. Only the Barium-sensitive current was used for statistical analysis. To measure the inhibitory activity of the channels, 1 μM BP-G1 in ND96K (HK) was used. Typically, oocytes were held at 0 mV (EK) and the current was monitored constantly using a ramp protocol with a command potential from −80 to +80 mV. Current amplitude was measured at the end of a 1 s sweep. All currents were analyzed when they reached steady state. Error bars in the figures represent SD (N > 4).

TNF-α = assay: Radioligand binding, [125I]TNF-a, U-937 cells; settings: reference compound run for the assay
5-HT2B = biological target: T7, 5-HT2B (Homo sapiens, UniProt P41595); assay: Radioligand binding, [125I](±)DOI; settings: reference compound run for the assay
T7 construct: expressed in transfected cells; host or cells: CHO cells

Bombesin BB = assay: Radioligand binding, [125I][Tyr4]bombesin; parameters: species or system rat; settings: reference compound run for the assay
Purinergic Channels P2Y = assay: Radioligand binding, [35S]dATPaS; parameters: species or system rat; settings: reference compound run for the assay
Purinergic Channels P2X = assay: Radioligand binding, [3H]a,b-MeATP, rat urinary bladder; settings: reference compound run for the assay
[2] = biological target: Benzodiazepine BDZ Central; assay: Radioligand binding, [3H]flunitrazepam; parameters: species or system rat; settings: read-out: Reference: IC50

T3 sequence (Q14654 whole entry): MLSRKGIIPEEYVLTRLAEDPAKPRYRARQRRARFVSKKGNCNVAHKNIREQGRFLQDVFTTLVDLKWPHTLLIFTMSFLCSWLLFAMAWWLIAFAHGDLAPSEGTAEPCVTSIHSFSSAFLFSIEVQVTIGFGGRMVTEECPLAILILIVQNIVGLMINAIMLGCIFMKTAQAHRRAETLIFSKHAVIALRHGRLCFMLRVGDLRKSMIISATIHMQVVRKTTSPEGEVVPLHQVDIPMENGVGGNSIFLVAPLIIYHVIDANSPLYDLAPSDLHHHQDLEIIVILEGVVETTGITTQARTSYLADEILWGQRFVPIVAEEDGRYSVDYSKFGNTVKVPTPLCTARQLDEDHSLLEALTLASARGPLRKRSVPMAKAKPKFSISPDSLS
T3 sequence (O60706 whole entry): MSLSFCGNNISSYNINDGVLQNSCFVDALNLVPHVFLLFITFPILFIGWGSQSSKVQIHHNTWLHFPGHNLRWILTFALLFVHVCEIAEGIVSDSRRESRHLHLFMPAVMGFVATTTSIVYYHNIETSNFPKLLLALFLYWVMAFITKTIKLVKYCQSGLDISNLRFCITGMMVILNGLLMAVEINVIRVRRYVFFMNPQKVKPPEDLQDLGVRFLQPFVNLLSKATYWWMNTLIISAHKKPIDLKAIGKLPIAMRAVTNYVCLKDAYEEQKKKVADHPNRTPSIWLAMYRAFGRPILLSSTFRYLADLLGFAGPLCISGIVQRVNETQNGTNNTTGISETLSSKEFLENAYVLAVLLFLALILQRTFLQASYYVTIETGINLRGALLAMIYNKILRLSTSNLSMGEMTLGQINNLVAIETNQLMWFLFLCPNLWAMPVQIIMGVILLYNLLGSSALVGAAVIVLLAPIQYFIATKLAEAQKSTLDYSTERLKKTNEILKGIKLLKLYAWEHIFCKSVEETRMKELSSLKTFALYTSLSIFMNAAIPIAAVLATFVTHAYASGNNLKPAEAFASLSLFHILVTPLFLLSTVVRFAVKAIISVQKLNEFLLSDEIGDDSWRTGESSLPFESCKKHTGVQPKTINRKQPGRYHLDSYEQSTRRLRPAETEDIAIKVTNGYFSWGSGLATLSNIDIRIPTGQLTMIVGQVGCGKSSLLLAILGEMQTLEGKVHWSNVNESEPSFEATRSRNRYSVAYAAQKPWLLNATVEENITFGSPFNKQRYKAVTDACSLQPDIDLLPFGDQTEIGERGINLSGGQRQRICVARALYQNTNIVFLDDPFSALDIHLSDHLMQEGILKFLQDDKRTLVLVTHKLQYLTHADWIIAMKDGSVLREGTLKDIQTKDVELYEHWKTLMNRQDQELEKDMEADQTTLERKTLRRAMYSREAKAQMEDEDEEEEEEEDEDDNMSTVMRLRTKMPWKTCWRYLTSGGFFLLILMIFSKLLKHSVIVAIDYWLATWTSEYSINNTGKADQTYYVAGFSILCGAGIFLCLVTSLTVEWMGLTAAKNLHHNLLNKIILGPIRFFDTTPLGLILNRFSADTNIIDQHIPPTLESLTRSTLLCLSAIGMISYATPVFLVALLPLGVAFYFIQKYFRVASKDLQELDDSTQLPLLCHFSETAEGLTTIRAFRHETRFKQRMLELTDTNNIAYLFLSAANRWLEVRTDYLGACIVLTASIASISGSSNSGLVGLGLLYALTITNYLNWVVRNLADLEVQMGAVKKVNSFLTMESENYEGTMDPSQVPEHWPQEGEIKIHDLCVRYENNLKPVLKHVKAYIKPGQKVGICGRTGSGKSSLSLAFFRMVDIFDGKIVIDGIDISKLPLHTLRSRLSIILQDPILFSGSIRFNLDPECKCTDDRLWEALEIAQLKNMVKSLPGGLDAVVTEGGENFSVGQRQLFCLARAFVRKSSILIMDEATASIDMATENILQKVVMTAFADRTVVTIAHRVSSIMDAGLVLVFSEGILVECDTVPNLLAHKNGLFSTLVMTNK
Kv1.5, sequence (P22460 whole entry): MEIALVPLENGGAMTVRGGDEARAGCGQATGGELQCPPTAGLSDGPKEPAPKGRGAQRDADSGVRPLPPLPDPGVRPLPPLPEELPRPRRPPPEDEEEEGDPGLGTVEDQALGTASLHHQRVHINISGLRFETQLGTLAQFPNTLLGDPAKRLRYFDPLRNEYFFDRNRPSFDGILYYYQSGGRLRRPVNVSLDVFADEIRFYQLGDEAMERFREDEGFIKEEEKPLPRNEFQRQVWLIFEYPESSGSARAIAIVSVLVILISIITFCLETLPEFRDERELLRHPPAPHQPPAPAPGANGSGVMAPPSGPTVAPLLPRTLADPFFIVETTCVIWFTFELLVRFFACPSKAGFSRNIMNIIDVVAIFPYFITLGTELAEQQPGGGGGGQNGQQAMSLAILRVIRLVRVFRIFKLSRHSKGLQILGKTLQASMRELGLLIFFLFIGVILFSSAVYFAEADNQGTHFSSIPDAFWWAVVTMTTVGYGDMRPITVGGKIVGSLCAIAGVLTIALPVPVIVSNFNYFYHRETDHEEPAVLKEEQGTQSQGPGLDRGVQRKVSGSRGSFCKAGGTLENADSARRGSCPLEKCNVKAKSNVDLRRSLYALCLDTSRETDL
T2 sequence (P63252 whole entry): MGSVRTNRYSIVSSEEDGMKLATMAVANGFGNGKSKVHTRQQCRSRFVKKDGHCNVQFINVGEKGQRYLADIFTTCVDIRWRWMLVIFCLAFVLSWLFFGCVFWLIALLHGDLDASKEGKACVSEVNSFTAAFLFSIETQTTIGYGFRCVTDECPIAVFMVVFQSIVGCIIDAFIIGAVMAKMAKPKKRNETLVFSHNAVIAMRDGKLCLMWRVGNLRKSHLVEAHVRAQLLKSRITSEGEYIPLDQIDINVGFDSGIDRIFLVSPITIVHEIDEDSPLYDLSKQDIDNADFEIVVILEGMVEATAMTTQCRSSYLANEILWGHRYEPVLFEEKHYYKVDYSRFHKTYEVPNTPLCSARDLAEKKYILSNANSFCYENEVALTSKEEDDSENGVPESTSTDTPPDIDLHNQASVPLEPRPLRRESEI
Nav1.5, sequence (Q14524 whole entry): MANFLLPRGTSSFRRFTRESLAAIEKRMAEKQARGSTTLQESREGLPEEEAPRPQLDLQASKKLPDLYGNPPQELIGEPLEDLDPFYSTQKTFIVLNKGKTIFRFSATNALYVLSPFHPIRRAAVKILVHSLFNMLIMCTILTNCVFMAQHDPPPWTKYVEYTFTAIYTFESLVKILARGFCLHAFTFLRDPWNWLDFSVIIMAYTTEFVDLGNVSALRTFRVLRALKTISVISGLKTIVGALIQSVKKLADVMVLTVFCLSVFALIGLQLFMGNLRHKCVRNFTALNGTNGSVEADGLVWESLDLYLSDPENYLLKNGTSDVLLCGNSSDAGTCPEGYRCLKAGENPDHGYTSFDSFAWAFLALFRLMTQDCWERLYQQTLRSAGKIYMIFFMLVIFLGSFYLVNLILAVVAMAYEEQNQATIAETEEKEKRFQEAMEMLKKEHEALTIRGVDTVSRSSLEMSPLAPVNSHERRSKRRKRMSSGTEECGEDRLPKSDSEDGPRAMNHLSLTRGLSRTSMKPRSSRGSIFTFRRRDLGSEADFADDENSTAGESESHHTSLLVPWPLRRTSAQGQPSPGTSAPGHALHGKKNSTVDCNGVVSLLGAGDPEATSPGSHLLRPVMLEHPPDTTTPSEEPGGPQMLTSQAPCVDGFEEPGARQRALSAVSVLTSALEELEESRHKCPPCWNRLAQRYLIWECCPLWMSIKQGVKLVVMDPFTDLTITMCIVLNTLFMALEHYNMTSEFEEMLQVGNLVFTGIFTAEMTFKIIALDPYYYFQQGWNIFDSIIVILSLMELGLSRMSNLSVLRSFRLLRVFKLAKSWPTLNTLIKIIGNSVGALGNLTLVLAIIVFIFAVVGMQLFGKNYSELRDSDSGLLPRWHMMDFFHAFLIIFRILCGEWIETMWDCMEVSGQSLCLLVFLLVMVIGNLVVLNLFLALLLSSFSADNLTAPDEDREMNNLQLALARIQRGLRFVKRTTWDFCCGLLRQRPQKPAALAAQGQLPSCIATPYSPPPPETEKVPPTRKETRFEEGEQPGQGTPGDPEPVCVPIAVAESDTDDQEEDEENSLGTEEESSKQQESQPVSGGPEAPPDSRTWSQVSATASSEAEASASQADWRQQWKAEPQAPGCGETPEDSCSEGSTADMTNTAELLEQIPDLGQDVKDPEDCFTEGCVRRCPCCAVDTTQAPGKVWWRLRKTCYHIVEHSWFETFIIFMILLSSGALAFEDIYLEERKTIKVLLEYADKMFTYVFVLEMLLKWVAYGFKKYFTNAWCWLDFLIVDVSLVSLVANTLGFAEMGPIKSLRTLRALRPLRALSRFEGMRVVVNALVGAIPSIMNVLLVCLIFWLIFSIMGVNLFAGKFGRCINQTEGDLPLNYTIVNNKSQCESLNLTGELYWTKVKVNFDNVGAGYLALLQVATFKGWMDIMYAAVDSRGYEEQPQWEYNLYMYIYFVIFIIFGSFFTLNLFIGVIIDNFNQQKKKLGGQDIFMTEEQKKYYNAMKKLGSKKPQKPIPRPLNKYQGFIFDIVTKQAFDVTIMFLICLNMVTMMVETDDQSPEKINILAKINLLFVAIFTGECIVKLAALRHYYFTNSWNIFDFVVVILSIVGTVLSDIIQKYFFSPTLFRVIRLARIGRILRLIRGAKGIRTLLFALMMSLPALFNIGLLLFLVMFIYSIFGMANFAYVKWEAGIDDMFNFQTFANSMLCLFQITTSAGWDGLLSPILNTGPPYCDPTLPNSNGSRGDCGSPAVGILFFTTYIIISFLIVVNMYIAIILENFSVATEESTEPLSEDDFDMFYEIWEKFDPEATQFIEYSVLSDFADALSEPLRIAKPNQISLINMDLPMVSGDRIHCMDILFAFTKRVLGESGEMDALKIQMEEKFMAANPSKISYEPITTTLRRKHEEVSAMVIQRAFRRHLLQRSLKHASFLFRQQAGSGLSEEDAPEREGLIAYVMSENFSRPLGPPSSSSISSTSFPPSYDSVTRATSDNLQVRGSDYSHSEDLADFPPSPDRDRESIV

**Q.** For “apamin (CNCKAPETALCARRCQQH; ends and bridges not checked; cysteine pairing not given here; UniProt P01500 28-45, looked up)”, which IC50 (SKCa) is on record?
**A.** 0.0091 nM

**Q.** With `C=C(C)[C@@H]1[C@H]2OC(=O)[C@@H]1[C@]1(O)C[C@H]3O[C@]34C(=O)O[C@H]2[C@]14C` [picrotoxinin, reference compound] as the compound, how does the IC50 [1] read?
**A.** 150 nM

**Q.** Which IC50 (Adrenergic α2) does the source give for `COc1cc2nc(N3CCN(C(=O)c4ccco4)CC3)nc(N)c2cc1OC` [prazosin] here?
**A.** 0.182 nM

**Q.** Which IC50 (Chemokines CCR1) does the source give for MIP-1a: assay reference compound here?
**A.** 0.04 nM

**Q.** What does the source list for `C[N+](C)(C)CCOC(N)=O` [Carbachol, carbachol, reference compound]?
**A.** RR interval after carbachol (IKACh; BP-G1 group, baseline 155.2 ± 16.3 ms): 474.2 ± 60.7 ms; RR interval after carbachol (IKACh; saline control group, baseline 168.6 ± 10.7 ms): 476.7 ± 77.8 ms

**Q.** For somatostatin-14, which IC50 (Somatostatin sst) is on record?
**A.** 0.2 nM

**Q.** What does the source list for `Cc1cc(CO)nc2cc3c(cc12)OC(C)(C)[C@H](O)[C@H]3NCCc1ccccc1` [NTC-801]?
**A.** IC50 (HCN4): > 30000 nM; IC50 (Cav1.2): > 30000 nM; IC50 (Kv7.1/KCNE1): > 30000 nM; IC50 (Kir3.1/3.4): 0.7 nM; IC50 (GP IKACh): 7 nM; IC50 (Kir2.1): > 30000 nM; IC50 (Kir6.2/SUR2A): 7800 nM; IC50 (hERG): > 30000 nM; IC50 (Kv1.5): > 30000 nM; IC50 (Kir3.1/3.2): 34 nM; IC50 (Nav1.5): 8300 nM; IC50 (Kv4.3): > 11600 nM

**Q.** With `COc1cc(OC)c(C(=O)CCCCN2CCC3(CC2)NC(=O)NC3=O)cc1NS(=O)(=O)c1ccc(C(F)(F)F)cc1` [RS 102221] as the compound, how does the IC50 (5-HT2C) read?
**A.** 3.1 nM

**Q.** Which IC50 (Muscarinic M5) does the source give for `C[N+]1(C)CCC(OC(=O)C(c2ccccc2)c2ccccc2)CC1` [4-DAMP] here?
**A.** 0.52 nM

**Q.** Which “inhibitory activity on Kir3.1/4 channel” value (Kir3.1/4 channel) does the source give for `Cc1ccnc2cc3c(cc12)OC(C)(C)C=C3` [GAT1572, 2,2,9-trimethyl-2H-pyrano[2,3-g]quinoline] here?
**A.** not active

**Q.** With `Cc1ccnc2cc3c(cc12)OC(C)(C)[C@H](O)[C@H]3NCCc1ccccc1` [GAT1588, (3R,4S)-2,2,9-trimethyl-4-(phenethylamino)-3,4-dihydro-2H-pyrano[2,3-g]quinolin-3-ol] as the compound, how does the “inhibitory activity on Kir3.1/4 channel” value (Kir3.1/4 channel) read?
**A.** retained comparable inhibitory activity to BP-G1; also recorded: inhibited the channel with comparable activity to BP-G1

**Q.** With TNF-a as the compound, how does the IC50 (TNF-α) read?
**A.** 0.1 nM

**Q.** With `Cc1cc(CO)nc2cc3c(cc12)OC(C)(C)C=C3` [GAT1573, (2,2,9-trimethyl-2H-pyrano[2,3-g]quinolin-7-yl)methanol] as the compound, how does the “inhibitory activity on Kir3.1/4 channel” value (Kir3.1/4 channel) read?
**A.** not active

**Q.** Which IC50 (5-HT2B) does the source give for `COc1cc(CC(C)N)c(OC)cc1I` (racemic) [(±)DOI] here?
**A.** 5 nM

**Q.** For bombesin, which IC50 (Bombesin BB) is on record?
**A.** 0.205 nM

**Q.** With `Nc1ncnc2c1ncn2[C@H]1C[C@H](O)[C@@H](COP(O)(=S)OP(=O)(O)OP(=O)(O)O)O1` (stereo partly drawn) [dATPaS] as the compound, how does the IC50 (Purinergic Channels P2Y) read?
**A.** 20 nM

**Q.** Which IC50 (Purinergic Channels P2X) does the source give for `Nc1ncnc2c1ncn2[C@@H]1O[C@H](COP(=O)(O)CP(=O)(O)OP(=O)(O)O)[C@@H](O)[C@H]1O` [a,b-MeATP] here?
**A.** 3.5 nM

**Q.** Which IC50 [2] does the source give for `CN1C(=O)CN=C(c2ccccc2)c2cc(Cl)ccc21` [diazepam] here?
**A.** 8.6 nM
